Converted amounts (≈) assume the structure as drawn. “And” between values parts separate entries of the source, which are not always exact repeats. Identical values can stand only once.
Assays:
Test in all cases: ≥ marks a high value that may be exact or a test limit, other limits are often not marked, values filed in µg/mL are converted to µM
[1] = test system: Staphylococcus aureus BCRC 10780
[2] = test system: Escherichia coli
[3] = test system: Saccharomyces cerevisiae
[4] = test system: Serratia marcescens
[5] = test system: Pseudomonas aeruginosa
[6] = test system: Salmonella typhimurium
[7] = test system: Shigella dysenteriae
[8] = test system: Staphylococcus epidermidis
[9] = test system: Candida albicans
[10] = test system: Micrococcus luteus
[11] = test system: Bacillus subtilis
[12] = test system: Proteus mirabilis
[13] = test system: Pseudomonas aeruginosa ATCC 27853
[14] = test system: Escherichia coli ML-35
[15] = test system: Escherichia coli ATCC 25922
[16] = test system: Salmonella enterica subsp. enterica serovar Typhimurium ATCC 14028
[17] = test system: Bacillus megaterium
[18] = test system: Staphylococcus aureus ATCC 25923
[19] = test system: Enterococcus faecalis ATCC 29212
[20] = test system: Salmonella typhimurium ATCC 7731
[21] = test system: Staphylococcus aureus ATCC 29213
[22] = test system: Bacillus subtilis CMCC 63501
[23] = test system: Staphylococcus epidermidis ATCC 12228
[24] = test system: Staphylococcus aureus ATCC 43300
[25] = test system: Escherichia coli UB1005
[26] = test system: Salmonella enterica subsp. enterica serovar Pullorum C79-13
[27] = test system: Pseudomonas aeruginosa ATCC 15692
[28] = test system: Escherichia coli ML-35p
[29] = test system: Bacillus cereus ATCC 11778
[30] = test system: Escherichia coli ATCC 35218
[31] = test system: Pseudomonas aeruginosa ATCC 9027
[32] = test system: Micrococcus luteus ATCC 4698

SMILES: CC[C@H](C)[C@H](NC(=O)[C@H](CCCCN)NC(=O)[C@@H]1CCCN1C(=O)[C@@H](NC(=O)[C@H](CC(C)C)NC(=O)[C@H](C)NC(=O)[C@H](Cc1ccccc1)NC(=O)[C@H](Cc1ccccc1)NC(=O)CNC(C)=O)[C@@H](C)CC)C(N)=O [GFFALIPKI]
- MIC [1]: ≥ 99.5 µM

SMILES: CC[C@H](C)[C@H](NC(=O)CN)C(=O)N[C@@H](CC(C)C)C(=O)N[C@@H](CC(=O)O)C(=O)N[C@H](C(=O)N[C@@H](CC(C)C)C(=O)N[C@@H](CCCCN)C(=O)N[C@@H](CCC(N)=O)C(=O)N[C@@H](Cc1ccccc1)C(=O)N[C@@H](C)C(=O)N[C@@H](CCCCN)C(=O)NCC(=O)N[C@H](C(=O)NCC(=O)N[C@@H](CCCCN)C(=O)N[C@@H](CC(=O)O)C(=O)N[C@@H](CC(C)C)C(=O)N[C@H](C(=O)N[C@@H](CCCCN)C(=O)NCC(=O)N[C@@H](C)C(=O)N[C@@H](C)C(=O)N[C@@H](CCC(N)=O)C(=O)NCC(=O)N[C@H](C(=O)N[C@@H](CC(C)C)C(=O)N[C@@H](CO)C(=O)N[C@H](C(=O)N[C@H](C(=O)O)C(C)C)[C@@H](C)O)C(C)C)C(C)C)C(C)C)[C@@H](C)O [GILDTLKQFAKGVGKDLVKGAAQGVLSTV]
- MIC [2]: 8.58 µM (≈ 25 µg/mL)
- MIC [3]: 8.58 µM (≈ 25 µg/mL)
- MIC [4]: ≥ 34.3 µM
- MIC [5]: 8.58 µM (≈ 25 µg/mL)
- MIC [6]: 17.2 µM (≈ 50 µg/mL)
- MIC [7]: 8.58 µM (≈ 25 µg/mL)
- MIC [8]: ≥ 34.3 µM
- MIC [9]: > 34.3 µM
- MIC [10]: 0.858 µM (≈ 2.5 µg/mL)
- MIC [11]: 17.2 µM (≈ 50 µg/mL)
- MIC [12]: 17.2 µM (≈ 50 µg/mL)

SMILES: CC[C@H](C)[C@H](NC(=O)[C@H](CCCCN)NC(=O)[C@H](CCCCN)NC(=O)[C@H](CC(C)C)NC(=O)[C@H](CCCCN)NC(=O)[C@H](CCC(=O)O)NC(=O)[C@H](CCCCN)NC(=O)[C@H](CCCCN)NC(=O)[C@H](CCCCN)NC(=O)[C@H](CC(N)=O)NC(=O)[C@H](CCCN=C(N)N)NC(=O)[C@H](Cc1ccccc1)NC(=O)[C@H](CCCCN)NC(=O)[C@H](CCCN=C(N)N)NC(=O)[C@H](CCCCN)NC(=O)[C@H](CCCN=C(N)N)NC(=O)[C@H](CCCCN)NC(=O)[C@H](CCCN=C(N)N)NC(=O)[C@H](CC(C)C)NC(=O)CN)C(=O)O [GLRKRKRKFRNKKKEKLKKI]
- MIC [13]: > 64 µM
- MIC [14]: ≥ 64 µM
- MIC [15]: > 64 µM
- MIC [16]: > 64 µM
- MIC [17]: ≥ 64 µM
- MIC [18]: > 64 µM

SMILES: CC[C@H](C)[C@H](N)C(=O)N[C@@H](Cc1cnc[nH]1)C(=O)N[C@@H](CCCCN)C(=O)N[C@@H](Cc1ccccc1)C(=O)N[C@@H](Cc1c[nH]c2ccccc12)C(=O)N[C@@H](CCCN=C(N)N)C(=O)N[C@@H](CS)C(=O)N[C@@H](CCCN=C(N)N)C(=O)N[C@@H](CCCN=C(N)N)C(=O)N[C@@H](CCCN=C(N)N)C(=O)N[C@@H](Cc1ccccc1)C(=O)N[C@@H](CS)C(=O)N[C@@H](CCCN=C(N)N)C(=O)N[C@@H](Cc1c[nH]c2ccccc12)C(=O)N[C@@H](Cc1ccccc1)C(=O)N[C@@H](CCCCN)C(=O)N[C@@H](Cc1cnc[nH]1)C(=O)N[C@H](C(N)=O)[C@@H](C)CC [IHKFWRCRRRFCRWFKHI]
- MIC [19]: 16 µM (≈ 41.2 µg/mL)
- MIC [13]: 8 µM (≈ 20.6 µg/mL)
- MIC [20]: 8 µM (≈ 20.6 µg/mL)
- MIC [21]: 8 µM and 16 µM
- MIC [22]: 16 µM (≈ 41.2 µg/mL)
- MIC [23]: 8 µM (≈ 20.6 µg/mL)
- MIC [24]: 8 µM (≈ 20.6 µg/mL)
- MIC [25]: 8 µM (≈ 20.6 µg/mL)
- MIC [26]: 8 µM (≈ 20.6 µg/mL)

SMILES: CC[C@H](C)[C@H](N)C(=O)N[C@@H](Cc1cnc[nH]1)C(=O)N[C@@H](CCCCN)C(=O)N[C@@H](Cc1ccccc1)C(=O)N[C@@H](Cc1c[nH]c2ccccc12)C(=O)N[C@@H](CCCN=C(N)N)C(=O)N1CCC[C@H]1C(=O)NCC(=O)N[C@@H](CCCN=C(N)N)C(=O)N[C@@H](Cc1c[nH]c2ccccc12)C(=O)N[C@@H](Cc1ccccc1)C(=O)N[C@@H](CCCCN)C(=O)N[C@@H](Cc1cnc[nH]1)C(=O)N[C@H](C(N)=O)[C@@H](C)CC [IHKFWRPGRWFKHI]
- MIC [19]: 8 µM (≈ 15.3 µg/mL)
- MIC [13]: 4 µM (≈ 7.63 µg/mL)
- MIC [20]: 8 µM (≈ 15.3 µg/mL)
- MIC [22]: 8 µM (≈ 15.3 µg/mL)
- MIC [23]: 16 µM (≈ 30.5 µg/mL)
- MIC [24]: 16 µM (≈ 30.5 µg/mL)
- MIC [25]: 4 µM (≈ 7.63 µg/mL)
- MIC [26]: 4 µM (≈ 7.63 µg/mL)

SMILES: CSCC[C@H](NC(=O)[C@@H](NC(=O)[C@@H](NC(=O)[C@H](CCCCN)NC(=O)[C@H](CC(C)C)NC(=O)[C@H](C)NC(=O)[C@H](CCCCN)NC(=O)[C@@H](NC(=O)[C@H](CC(C)C)NC(=O)[C@H](Cc1ccccc1)NC(=O)[C@H](CC(N)=O)NC(=O)[C@H](CCC(=O)O)NC(=O)[C@H](Cc1ccccc1)NC(=O)CNC(=O)[C@H](CC(C)C)NC(=O)[C@@H](N)CCCCN)C(C)C)[C@@H](C)O)C(C)C)C(=O)N[C@@H](Cc1cnc[nH]1)C(=O)N[C@H](C(=O)N1CCC[C@H]1C(=O)N[C@H](C(=O)N[C@@H](CO)C(=O)N1CCC[C@H]1C(=O)N[C@@H](CC(C)C)C(=O)N[C@@H](CC(C)C)C(N)=O)[C@@H](C)O)C(C)C [KLGFENFLVKALKTVMHVPTSPLL]
- MIC [3]: ≥ 64 µM
- MIC [15]: 16 µM (≈ 42.9 µg/mL)
- MIC [10]: 4 µM (≈ 10.7 µg/mL)
- MIC [27]: ≥ 256 µM
- MIC [18]: > 256 µM

SMILES: CC(C)C[C@H](NC(=O)[C@H](CCCCN)NC(=O)[C@H](CCCCN)NC(=O)[C@H](Cc1ccccc1)NC(=O)[C@H](Cc1ccccc1)NC(=O)[C@H](CCCCN)NC(=O)[C@H](CCCCN)NC(=O)[C@H](Cc1ccccc1)NC(=O)[C@H](CCCN=C(N)N)NC(=O)[C@@H](N)CCCCN)C(=O)N[C@@H](CCCCN)C(=O)N[C@@H](CCCCN)C(=O)N[C@@H](Cc1ccccc1)C(=O)N[C@H](C(=O)N[C@@H](CCCCN)C(=O)N[C@@H](CCCCN)C(=O)NCC(=O)N[C@@H](Cc1ccccc1)C(=O)N[C@@H](CCCCN)C(=O)N[C@@H](CCCCN)C(=O)N[C@@H](Cc1ccccc1)C(=O)N[C@@H](C)C(=O)N[C@@H](CCCCN)C(=O)N[C@H](C(=O)O)C(C)C)C(C)C [KRFKKFFKKLKKFVKKGFKKFAKV]
- MIC [28]: 1.98 µM and 0.989 µM

SMILES: CC(C)C[C@H](NC(=O)[C@@H](NC(=O)[C@H](CCCCN)NC(=O)[C@H](CCCCN)NC(=O)[C@@H](N)CC(C)C)C(C)C)C(=O)N[C@@H](CCCCN)C(=O)N[C@@H](C)C(=O)N[C@@H](C)C(=O)N[C@@H](C)C(N)=O [LKKVLKAAA]
- MIC [29]: ≥ 50 µM
- MIC [30]: ≥ 50 µM
- MIC [31]: > 50 µM
- MIC [18]: > 50 µM

SMILES: CC(C)C[C@H](NC(=O)[C@H](CCCNC(=N)N)NC(=O)CNC(=O)CNC(=O)[C@@H](N)CCCNC(=N)N)C(=O)N[C@@H](CS)C(=O)N[C@@H](Cc1ccc(O)cc1)C(=O)N[C@@H](CS)C(=O)N[C@@H](CCCNC(=N)N)C(=O)N[C@@H](CCCNC(=N)N)C(=O)N[C@@H](CCCNC(=N)N)C(=O)N[C@@H](Cc1ccccc1)C(=O)N[C@@H](CS)C(=O)N[C@H](C(=O)N[C@@H](CS)C(=O)N[C@H](C(=O)NCC(=O)N[C@@H](CCCNC(=N)N)C(N)=O)C(C)C)C(C)C [RGGRLCYCRRRFCVCVGR]
- MIC [19]: 16 µM (≈ 34.6 µg/mL)
- MIC [13]: 16 µM (≈ 34.6 µg/mL)
- MIC [20]: 8 µM (≈ 17.3 µg/mL)
- MIC [22]: 8 µM (≈ 17.3 µg/mL)
- MIC [23]: 16 µM (≈ 34.6 µg/mL)
- MIC [24]: 2 µM (≈ 4.32 µg/mL)
- MIC [25]: 2 µM (≈ 4.32 µg/mL)
- MIC [26]: 2 µM (≈ 4.32 µg/mL)

SMILES: CC(C)C[C@H](NC(=O)[C@H](CCCN=C(N)N)NC(=O)[C@H](Cc1cnc[nH]1)NC(=O)[C@H](Cc1c[nH]c2ccccc12)NC(=O)CNC(=O)CNC(=O)[C@@H](N)CO)C(=O)N[C@@H](CCCN=C(N)N)C(=O)N[C@@H](CO)C(=O)O [SGGWHRLRS]
- MIC [32]: ≥ 75 µM
